# Measured values reported in ChEMBL document CHEMBL5055685, “Discovery of the First Potent IDO1/IDO2 Dual Inhibitors: A Promising Strategy for Cancer Immunotherapy” (J Med Chem, 2021).
# The source made the active and inactive calls. The rule behind the calls is not given here.
# Columns and labels:
# [1] = Half life in monkey liver microsomes; format: ADME, Macaca mulatta, Microsome; details: rhesus monkey
# [2] = Metabolic stability in dog liver microsomes assessed as rate constant; format: ADME, Canis lupus familiaris, Microsome
# [3] = Half life in rat liver microsomes; format: ADME, Microsome
# [4] = Protein binding in monkey plasma by equilibrium dialysis by equilibrium dialysis; format: ADME, cell-free, Macaca mulatta; details: rhesus monkey, read-out: PPB (converted)
# [5] = tested on: Mus musculus; test: Toxicity in BALB/c mouse implanted with mouse CT26 cells assessed as adverse effect at 50 mg/kg, ip bid for 28 days; format: organism-based; details: in vivo, 672 h, time 28 day
# [6] = tested on: HCT-116; test: Antitumor activity against human HCT-116 cells xenografted in BALB/c nude mouse assessed as tumor growth inhibition at 100 to 300 mg/kg, ig bid for 21 days by vernier caliper method; format: functional, organism-based; details: dose 100-300 mg/kg, time 21.0 day
# [7] = tested on: Mus musculus; test: In vivo inhibition of IDO1/IDO2 in BALB/c mouse xenografted with human HCT-116 cells assessed as increase in tryptophan level in serum by […]; format: functional, organism-based
# [8] = tested on: Mus musculus; test: In vivo inhibition of IDO1/IDO2 in BALB/c mouse xenografted with human HCT-116 cells assessed as reduction in KYN level in serum by […]; format: functional, organism-based
# [9] = tested on: HCT-116; test: Antitumor immunity in BALB/c mouse xenografted with human HCT-116 cells assessed as late Treg cells in spleen by propidium iodide staining based flow cytometry analysis (reference value: 10.3 %); format: functional
# [10] = tested on: Mus musculus; test: In vivo inhibition of IDO1/IDO2 in BALB/c mouse xenografted with human HCT-116 cells assessed as downregulation of Foxp3 expression in tumor by immunohistochemical assay; format: functional, organism-based
# [11] = molecular target: Tyrosine-protein kinase ABL2 (Homo sapiens) (UniProt P42684); test: Inhibition of ABL2 (unknown origin) at 1 uM
# [12] = species: Homo sapiens; test: Inhibition of ALK6 (unknown origin) at 1 uM
# [13] = molecular target: Serine/threonine-protein kinase B-raf (Homo sapiens) (UniProt P15056); test: Inhibition of BRAF (unknown origin) at 1 uM
# [14] = molecular target: Tyrosine-protein kinase BTK (Homo sapiens) (UniProt Q06187); test: Inhibition of BTK (unknown origin) at 1 uM
# [15] = molecular target: Calcium/calmodulin-dependent protein kinase type 1G (Homo sapiens) (UniProt Q96NX5); test: Inhibition of CAMK1G (unknown origin) at 1 uM
# [16] = molecular target: Calcium/calmodulin-dependent protein kinase type II subunit gamma (Homo sapiens) (UniProt Q13555); test: Inhibition of CAMK2G (unknown origin) at 1 uM
# Chain of Calcium/calmodulin-dependent protein kinase type II subunit gamma (Homo sapiens) (Q13555 whole entry): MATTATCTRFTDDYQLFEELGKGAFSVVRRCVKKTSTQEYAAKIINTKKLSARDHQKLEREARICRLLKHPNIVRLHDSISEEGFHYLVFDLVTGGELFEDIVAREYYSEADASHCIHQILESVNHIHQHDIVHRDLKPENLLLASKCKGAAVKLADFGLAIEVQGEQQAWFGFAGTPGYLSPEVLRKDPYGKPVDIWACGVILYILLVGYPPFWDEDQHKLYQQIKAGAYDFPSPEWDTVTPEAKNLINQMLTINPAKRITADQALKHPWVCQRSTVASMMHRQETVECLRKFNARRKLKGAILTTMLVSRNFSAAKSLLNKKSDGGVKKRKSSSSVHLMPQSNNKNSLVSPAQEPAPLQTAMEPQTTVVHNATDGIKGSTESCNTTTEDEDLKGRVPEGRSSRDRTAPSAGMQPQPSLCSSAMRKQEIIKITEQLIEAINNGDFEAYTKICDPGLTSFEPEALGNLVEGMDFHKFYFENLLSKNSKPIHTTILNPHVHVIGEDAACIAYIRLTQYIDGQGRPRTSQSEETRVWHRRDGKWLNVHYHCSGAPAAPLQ
# [17] = molecular target: Cyclin-dependent kinase 1/cyclin B1 (Homo sapiens) (UniProt P06493+P14635); test: Inhibition of CDK1/cyclinB (unknown origin) at 1 uM; format: protein-complex assay
# [18] = molecular target: Casein kinase I isoform alpha-like (Homo sapiens) (UniProt Q8N752); test: Inhibition of CK1a1L (unknown origin) at 1 uM
# Chain of Casein kinase I isoform alpha-like (Homo sapiens) (Q8N752 whole entry, the tested form may be a part, canonical isoform): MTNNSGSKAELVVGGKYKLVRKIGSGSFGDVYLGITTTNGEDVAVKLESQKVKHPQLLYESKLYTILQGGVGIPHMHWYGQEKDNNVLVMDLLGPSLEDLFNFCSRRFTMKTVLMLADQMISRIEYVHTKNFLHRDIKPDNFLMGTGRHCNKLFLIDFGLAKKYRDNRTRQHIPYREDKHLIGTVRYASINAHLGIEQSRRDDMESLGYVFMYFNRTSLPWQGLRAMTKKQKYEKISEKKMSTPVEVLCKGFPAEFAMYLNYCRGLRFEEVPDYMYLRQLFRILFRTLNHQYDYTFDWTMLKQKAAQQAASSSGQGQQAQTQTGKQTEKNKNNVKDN
# [19] = molecular target: Discoidin domain-containing receptor 2 (Homo sapiens) (UniProt Q16832); test: Inhibition of DDR2 (unknown origin) at 1 uM
# [20] = molecular target: Dual specificity tyrosine-phosphorylation-regulated kinase 1A (Homo sapiens) (UniProt Q13627); test: Inhibition of DYRK1A (unknown origin) at 1 uM
# [21] = molecular target: Epidermal growth factor receptor (Homo sapiens) (UniProt P00533); test: Inhibition of EGFR (unknown origin) at 1 uM
# [22] = molecular target: Ephrin type-A receptor 8 (Homo sapiens) (UniProt P29322); test: Inhibition of EPHA8 (unknown origin) at 1 uM
# [23] = molecular target: Tyrosine-protein kinase FRK (Homo sapiens) (UniProt P42685); test: Inhibition of FRK (unknown origin) at 1 uM
# Chain of Tyrosine-protein kinase FRK (Homo sapiens) (P42685 whole entry): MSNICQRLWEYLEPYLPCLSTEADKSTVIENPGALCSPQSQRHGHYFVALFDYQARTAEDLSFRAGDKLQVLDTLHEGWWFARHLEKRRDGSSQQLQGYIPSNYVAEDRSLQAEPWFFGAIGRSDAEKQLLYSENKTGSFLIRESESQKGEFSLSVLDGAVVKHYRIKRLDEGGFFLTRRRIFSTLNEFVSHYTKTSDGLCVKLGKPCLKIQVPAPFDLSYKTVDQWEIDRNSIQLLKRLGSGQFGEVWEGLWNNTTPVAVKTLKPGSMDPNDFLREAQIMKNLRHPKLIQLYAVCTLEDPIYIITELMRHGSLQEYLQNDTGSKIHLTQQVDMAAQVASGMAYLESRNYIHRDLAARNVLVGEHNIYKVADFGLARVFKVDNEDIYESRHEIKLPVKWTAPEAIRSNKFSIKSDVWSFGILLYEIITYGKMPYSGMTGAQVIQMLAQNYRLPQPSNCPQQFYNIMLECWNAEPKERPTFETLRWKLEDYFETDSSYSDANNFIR
# [24] = molecular target: Mitogen-activated protein kinase kinase kinase kinase 4 (Homo sapiens) (UniProt O95819); test: Inhibition of HGK (unknown origin) at 1 uM
# [25] = molecular target: Tyrosine-protein kinase Lyn (Homo sapiens) (UniProt P07948); test: Inhibition of LYN (unknown origin) at 1 uM
# Chain of Tyrosine-protein kinase Lyn (Homo sapiens) (P07948 2-512 limits assumed): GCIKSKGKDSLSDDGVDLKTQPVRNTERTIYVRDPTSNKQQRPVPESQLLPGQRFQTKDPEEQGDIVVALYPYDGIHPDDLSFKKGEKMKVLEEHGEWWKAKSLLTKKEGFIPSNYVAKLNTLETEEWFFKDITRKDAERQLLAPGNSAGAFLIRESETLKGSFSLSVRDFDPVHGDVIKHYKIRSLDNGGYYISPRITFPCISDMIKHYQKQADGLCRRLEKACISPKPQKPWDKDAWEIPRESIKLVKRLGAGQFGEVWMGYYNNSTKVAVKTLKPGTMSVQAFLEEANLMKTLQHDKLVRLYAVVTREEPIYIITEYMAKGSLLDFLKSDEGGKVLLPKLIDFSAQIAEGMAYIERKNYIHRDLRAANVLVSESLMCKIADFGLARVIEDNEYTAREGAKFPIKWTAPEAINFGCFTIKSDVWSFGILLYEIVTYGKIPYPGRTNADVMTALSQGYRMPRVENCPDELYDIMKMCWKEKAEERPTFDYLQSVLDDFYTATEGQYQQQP
# [26] = molecular target: Dual specificity mitogen-activated protein kinase kinase 6 (Homo sapiens) (UniProt P52564); test: Inhibition of MKK6 (unknown origin) at 1 uM
# [27] = molecular target: Mitogen-activated protein kinase kinase kinase 21 (Homo sapiens) (UniProt Q5TCX8); test: Inhibition of MLK4 (unknown origin)at 1 uM
# [28] = molecular target: Serine/threonine-protein kinase Nek2 (Homo sapiens) (UniProt P51955); test: Inhibition of NEK2 (unknown origin) at 1 uM
# [29] = molecular target: Serine/threonine-protein kinase Nek5 (Homo sapiens) (UniProt Q6P3R8); test: Inhibition of NEK5 (unknown origin) at 1 uM
# [30] = molecular target: Serine/threonine-protein kinase Nek6 (Homo sapiens) (UniProt Q9HC98); test: Inhibition of NEK6 (unknown origin) at 1 uM
# [31] = molecular target: Serine/threonine-protein kinase NLK (Homo sapiens) (UniProt Q9UBE8); test: Inhibition of NLK (unknown origin) at 1 uM
# [32] = molecular target: cAMP-dependent protein kinase catalytic subunit gamma (Homo sapiens) (UniProt P22612); test: Inhibition of PKAcg (unknown origin) at 1 uM
# [33] = molecular target: Serine/threonine-protein kinase D1 (Homo sapiens) (UniProt Q15139); test: Inhibition of PKCmu (unknown origin) at 1 uM
# Chain of Serine/threonine-protein kinase D1 (Homo sapiens) (Q15139 whole entry): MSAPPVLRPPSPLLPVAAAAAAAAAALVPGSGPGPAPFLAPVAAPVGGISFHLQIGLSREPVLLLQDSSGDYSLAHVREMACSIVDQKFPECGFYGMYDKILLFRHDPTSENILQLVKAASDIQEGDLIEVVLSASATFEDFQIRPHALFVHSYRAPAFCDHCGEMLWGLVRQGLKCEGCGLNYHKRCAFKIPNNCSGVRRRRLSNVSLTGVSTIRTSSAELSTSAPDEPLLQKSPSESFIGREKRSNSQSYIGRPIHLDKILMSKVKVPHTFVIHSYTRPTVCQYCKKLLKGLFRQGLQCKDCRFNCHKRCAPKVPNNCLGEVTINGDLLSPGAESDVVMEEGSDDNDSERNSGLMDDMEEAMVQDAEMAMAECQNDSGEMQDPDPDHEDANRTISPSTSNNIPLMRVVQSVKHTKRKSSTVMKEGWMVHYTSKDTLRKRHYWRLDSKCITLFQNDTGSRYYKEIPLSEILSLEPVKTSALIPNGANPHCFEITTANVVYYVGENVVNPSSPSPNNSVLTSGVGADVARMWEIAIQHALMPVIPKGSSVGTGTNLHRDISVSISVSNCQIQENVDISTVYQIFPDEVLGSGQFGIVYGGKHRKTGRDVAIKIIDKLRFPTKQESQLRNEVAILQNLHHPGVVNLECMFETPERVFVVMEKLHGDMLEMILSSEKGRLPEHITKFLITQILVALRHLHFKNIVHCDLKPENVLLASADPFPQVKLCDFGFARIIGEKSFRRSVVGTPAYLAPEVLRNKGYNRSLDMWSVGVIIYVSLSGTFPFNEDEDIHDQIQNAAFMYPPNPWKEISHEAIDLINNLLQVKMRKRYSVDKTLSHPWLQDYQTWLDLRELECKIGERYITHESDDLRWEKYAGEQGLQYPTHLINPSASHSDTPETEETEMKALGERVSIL
# [34] = molecular target: Protein kinase C zeta type (Homo sapiens) (UniProt Q05513); test: Inhibition of PKCzeta (unknown origin) at 1 uM
# Chain of Protein kinase C zeta type (Homo sapiens) (Q05513 whole entry): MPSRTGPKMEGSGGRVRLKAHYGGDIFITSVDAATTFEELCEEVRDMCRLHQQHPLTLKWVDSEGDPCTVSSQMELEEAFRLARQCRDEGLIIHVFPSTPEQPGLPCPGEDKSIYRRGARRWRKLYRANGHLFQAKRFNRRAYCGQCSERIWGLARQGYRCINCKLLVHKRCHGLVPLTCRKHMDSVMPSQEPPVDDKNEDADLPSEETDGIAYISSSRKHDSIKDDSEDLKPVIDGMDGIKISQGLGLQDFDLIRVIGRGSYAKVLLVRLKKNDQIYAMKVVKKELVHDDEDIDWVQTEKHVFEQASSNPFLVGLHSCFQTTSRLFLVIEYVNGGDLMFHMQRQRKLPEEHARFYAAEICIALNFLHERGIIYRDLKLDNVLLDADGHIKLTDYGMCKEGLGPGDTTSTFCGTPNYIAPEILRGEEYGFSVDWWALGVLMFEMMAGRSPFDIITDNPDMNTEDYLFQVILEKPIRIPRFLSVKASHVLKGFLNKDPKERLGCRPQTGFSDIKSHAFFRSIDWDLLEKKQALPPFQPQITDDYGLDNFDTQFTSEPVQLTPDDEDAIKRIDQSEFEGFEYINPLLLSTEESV
# [35] = molecular target: Serine/threonine-protein kinase PLK3 (Homo sapiens) (UniProt Q9H4B4); test: Inhibition of PLK3 (unknown origin) at 1 uM
# [36] = molecular target: Ribosomal protein S6 kinase alpha-2 (Homo sapiens) (UniProt Q15349); test: Inhibition of RSK3 (unknown origin) at 1 uM
# Chain of Ribosomal protein S6 kinase alpha-2 (Homo sapiens) (Q15349 whole entry): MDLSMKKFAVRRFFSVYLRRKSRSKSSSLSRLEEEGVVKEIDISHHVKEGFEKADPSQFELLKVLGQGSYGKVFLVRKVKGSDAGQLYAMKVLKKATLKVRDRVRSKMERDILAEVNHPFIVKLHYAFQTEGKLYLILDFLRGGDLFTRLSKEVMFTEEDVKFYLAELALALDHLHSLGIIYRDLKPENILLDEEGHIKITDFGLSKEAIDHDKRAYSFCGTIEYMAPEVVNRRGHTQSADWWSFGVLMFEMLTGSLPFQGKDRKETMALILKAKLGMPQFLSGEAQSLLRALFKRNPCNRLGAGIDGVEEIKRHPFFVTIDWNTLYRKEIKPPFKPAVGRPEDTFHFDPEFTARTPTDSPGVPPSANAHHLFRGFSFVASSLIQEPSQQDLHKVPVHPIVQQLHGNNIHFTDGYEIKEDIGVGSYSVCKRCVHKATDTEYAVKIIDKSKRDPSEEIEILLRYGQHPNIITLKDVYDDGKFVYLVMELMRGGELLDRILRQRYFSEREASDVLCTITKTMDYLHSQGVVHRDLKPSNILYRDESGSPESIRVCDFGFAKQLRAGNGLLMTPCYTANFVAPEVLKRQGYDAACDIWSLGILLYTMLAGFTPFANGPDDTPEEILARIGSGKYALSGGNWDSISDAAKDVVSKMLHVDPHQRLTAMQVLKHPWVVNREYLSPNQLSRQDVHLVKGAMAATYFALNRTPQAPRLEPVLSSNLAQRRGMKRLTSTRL
# [37] = molecular target: Tyrosine-protein kinase Srms (Homo sapiens) (UniProt Q9H3Y6); test: Inhibition of SRMS (unknown origin) at 1 uM
# [38] = molecular target: SRSF protein kinase 1 (Homo sapiens) (UniProt Q96SB4); test: Inhibition of SRPK1 (unknown origin) at 1 uM
# [39] = molecular target: Serine/threonine-protein kinase TAO1 (Homo sapiens) (UniProt Q7L7X3); test: Inhibition of TAOK1 (unknown origin) at 1 uM
# [40] = molecular target: High affinity nerve growth factor receptor (Homo sapiens) (UniProt P04629); test: Inhibition of TRKA (unknown origin) at 1 uM
# [41] = molecular target: Serine/threonine-protein kinase ULK1 (Homo sapiens) (UniProt O75385); test: Inhibition of ULK1 (unknown origin) at 1 uM
# [42] = molecular target: Serine/threonine-protein kinase ULK2 (Homo sapiens) (UniProt Q8IYT8); test: Inhibition of ULK2 (unknown origin) at 1 uM
# [43] = molecular target: Serine/threonine-protein kinase WNK1 (Homo sapiens) (UniProt Q9H4A3); test: Inhibition of WNK1 (unknown origin) at 1 uM
# [44] = molecular target: Mitogen-activated protein kinase kinase kinase kinase 2 (Homo sapiens) (UniProt Q12851); test: Inhibition of GCK (unknown origin) at 1 uM
# Chain of Mitogen-activated protein kinase kinase kinase kinase 2 (Homo sapiens) (Q12851 whole entry, looked up): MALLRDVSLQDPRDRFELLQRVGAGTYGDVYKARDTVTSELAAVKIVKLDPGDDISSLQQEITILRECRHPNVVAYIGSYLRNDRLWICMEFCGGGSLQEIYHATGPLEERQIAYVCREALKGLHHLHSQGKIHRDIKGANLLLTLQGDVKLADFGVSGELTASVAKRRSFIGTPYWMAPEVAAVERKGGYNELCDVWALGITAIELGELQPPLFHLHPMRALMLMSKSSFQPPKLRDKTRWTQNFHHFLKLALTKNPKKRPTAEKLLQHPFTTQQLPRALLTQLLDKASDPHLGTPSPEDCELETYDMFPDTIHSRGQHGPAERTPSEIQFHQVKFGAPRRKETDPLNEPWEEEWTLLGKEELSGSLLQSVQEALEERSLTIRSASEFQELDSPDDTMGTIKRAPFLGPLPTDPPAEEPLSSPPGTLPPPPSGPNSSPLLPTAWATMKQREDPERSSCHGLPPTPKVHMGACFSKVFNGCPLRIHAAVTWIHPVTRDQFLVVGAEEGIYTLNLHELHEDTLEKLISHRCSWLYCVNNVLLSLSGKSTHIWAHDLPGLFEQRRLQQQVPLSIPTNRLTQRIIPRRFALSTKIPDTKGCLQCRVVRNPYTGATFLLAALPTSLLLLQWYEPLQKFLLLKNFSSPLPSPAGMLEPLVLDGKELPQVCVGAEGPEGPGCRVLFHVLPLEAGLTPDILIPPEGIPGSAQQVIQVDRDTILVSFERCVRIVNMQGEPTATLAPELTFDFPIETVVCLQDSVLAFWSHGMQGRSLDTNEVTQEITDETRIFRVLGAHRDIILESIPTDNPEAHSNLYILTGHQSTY
compound,measurement,setting,value
OCCOCc1cn(CCNc2nonc2/C(=N/O)Nc2ccc(F)c(Br)c2)nn1,half-life,[1],38.6 min
same,k el,[2],0.00205 s⁻¹
same,half-life,[3],21.2 min
same,fraction unbound,[4],0.0763
same,Activity,[5],Non-Toxic
same,Activity,[6],inactive
same,inhibition,[7],Active
same,inhibition,[8],Active
same,Activity,[9],7.24%
same,inhibition,[10],Active
same,inhibition,[11],inactive
same,inhibition,[12],inactive
same,inhibition,[13],inactive
same,inhibition,[14],inactive
same,inhibition,[15],inactive
same,inhibition,[16],inactive
same,inhibition,[17],inactive
same,inhibition,[18],inactive
same,inhibition,[19],inactive
same,inhibition,[20],inactive
same,inhibition,[21],inactive
same,inhibition,[22],inactive
same,inhibition,[23],inactive
same,inhibition,[24],inactive
same,inhibition,[25],inactive
same,inhibition,[26],inactive
same,inhibition,[27],inactive
same,inhibition,[28],inactive
same,inhibition,[29],inactive
same,inhibition,[30],inactive
same,inhibition,[31],inactive
same,inhibition,[32],inactive
same,inhibition,[33],inactive
same,inhibition,[34],inactive
same,inhibition,[35],inactive
same,inhibition,[36],inactive
same,inhibition,[37],inactive
same,inhibition,[38],inactive
same,inhibition,[39],inactive
same,inhibition,[40],inactive
same,inhibition,[41],inactive
same,inhibition,[42],inactive
same,inhibition,[43],inactive
same,inhibition,[44],inactive
